These results are taken from ChEMBL document CHEMBL1201862, “PubChem BioAssay data set” (2004).

What all share (assay): inhibition of tumour cell growth, NCI panel, 48 h
Test [1] relates to A549.
Test [2] concerns ACHN.
Test [3] deals with DMS-114.
Test [4] relates to EKVX.
Test [5] has as its system HCC 2998.
Test [6] relates to HCT-15.
The subject of test [7] is HOP-92.
For test [8], the system named is LOX IMVI.
Test [9] concerns NCI-H23.
Test [10] relates to OVCAR-4.
Test [11] deals with OVCAR-5.
The subject of test [12] is SF-295.
Test [13] deals with SK-MEL-2.
Test [14] deals with SK-MEL-5.
Test [15] relates to SNB-75.
The subject of test [16] is TK-10.
Test [17] concerns U-251.
Test [18] deals with A498.

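Each compound was tested at five concentrations against cells in 96-well plates for 48 hours. Here, GI50 denotes the concentration required for 50% inhibition of growth.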 Activity calls are given as the source filed them. No stated cut-off is given here; in the data, active = GI50 up to about 1.1 µM and inactive = higher.

For the compound `O=C1CN(C(=O)c2ccccc2)Cc2[nH]c3ccccc3c21`, the GI50 is > 100 µM (inactive) in [1]; > 100 µM (inactive) in [2]; > 100 µM (inactive) in [3]; > 100 µM (inactive) in test [4]; > 100 µM (inactive) in test [5]; above 100 µM in test [6]. The GI50 in test [7], in [8], in test [9], in test [10], in [11] and in [12] was > 100 µM (inactive) in each case. Besides, the GI50 in test [13], in test [14], in test [15], in test [16] and in test [17] was > 100 µM (inactive) throughout.
For `CN1C(=O)C(C)(C)NS1(=O)=O`, the GI50 in [18], in test [1], in [2], in test [3], in test [4] and in test [5] was > 100 µM (inactive) throughout. Further, the GI50 was above 100 µM in [6]; > 100 µM (inactive) in test [8]; > 100 µM (inactive) in [9]; > 100 µM (inactive) in test [10]; > 100 µM (inactive) in test [11]; > 100 µM (inactive) in [12]. For the same compound, the GI50 in test [13], in test [14], in [15], in [16] and in test [17] was > 100 µM (inactive) throughout.
With `C[C@]12CCC(=O)C(O)=C1CC[C@@H]1C2CC[C@]2(C)NC(=O)CCC12` (some centres not stated), the GI50 in test [18] was > 100 µM (inactive); in [1], > 100 µM (inactive); in [2], > 100 µM (inactive); in test [3], > 100 µM (inactive); in test [4] it was > 100 µM (inactive); in test [6], 70.6 µM. Further, the GI50 in test [7], in test [8], in test [9], in test [10], in test [11] and in [12] was > 100 µM (inactive) in each case. Moreover, the GI50 in [13], in test [14], in test [15], in [16] and in test [17] was > 100 µM (inactive) throughout.
Take `COC(=O)[C@@H]1C[C@H](c2ccc(OC)c(OC)c2)OC1=O.COC(=O)[C@H]1C[C@H](c2ccc(OC)c(OC)c2)OC1=O`: the GI50 in test [18] was > 100 µM (inactive); in test [1] it was > 100 µM (inactive); in test [2], > 100 µM (inactive); in test [3], > 100 µM (inactive); in [4], > 100 µM (inactive); in test [5], 61.9 µM (inactive). The GI50 in test [6] was above 100 µM; in test [7], > 100 µM (inactive); in [8] it was > 100 µM (inactive); in [9], > 100 µM (inactive); in test [10], > 100 µM (inactive); in test [11], > 100 µM (inactive). Further, the GI50 in [12], in [14], in [15], in [16] and in [17] was > 100 µM (inactive) in each case.
Consider `CCc1cccc(C)c1NC(=O)C(=O)Cc1nc2ccccc2s1`, for which the GI50 in test [18], in test [1], in [2], in test [3], in [4] and in test [5] was > 100 µM (inactive) in each case. Also, the GI50 in test [7] was 0.47 µM (active); in [9], > 100 µM (inactive); in test [10], > 100 µM (inactive); in test [12], > 100 µM (inactive); in test [13], > 100 µM (inactive); in [14], > 100 µM (inactive). In addition, the GI50 in [15], in test [16] and in [17] was > 100 µM (inactive) in each case.
As for `Cc1cc(N(CCC#N)CCC#N)ccc1/C=C(\NC(=O)/C=C/c1ccccc1)NC(=O)Nc1ccc(Cl)cc1`, the GI50 in [18] is > 100 µM (inactive); in test [1], 32.5 µM (inactive); in test [2], 7.28 µM (inactive); in [3], 17.3 µM (inactive); in test [4], 47.9 µM (inactive); in [5], 58.7 µM (inactive). For the same compound, the GI50 is above 100 µM in test [6]; 39.4 µM (inactive) in [7]; 1.83 µM (inactive) in test [8]; 22.2 µM (inactive) in [9]; 18.9 µM (inactive) in [10]; > 100 µM (inactive) in test [11]. Further, the GI50 in test [12] is 42.5 µM (inactive); in [13], > 100 µM (inactive); in test [14], 3.83 µM (inactive); in test [17] it was 14.3 µM (inactive).
Take `COC(=O)[C@@H]1c2[nH]c3ccccc3c2C[C@@H]2c3ccccc3NC(=O)[C@@H]21`: the GI50 was > 100 µM (inactive) in [18]; 38.8 µM (inactive) in test [1]; > 100 µM (inactive) in test [2]; > 100 µM (inactive) in test [3]; 53.5 µM (inactive) in test [4]; > 100 µM (inactive) in [5]. Besides, the GI50 in test [6] is above 100 µM; in test [8], 31 µM (inactive); in test [9] it was > 90.8 µM (inactive); in test [11], > 100 µM (inactive); in test [12] it was 15.7 µM (inactive); in test [13], > 62.8 µM (inactive). The GI50 in test [14] was > 54 µM (inactive); in [15], 12.7 µM (inactive); in test [16] it was > 80.4 µM (inactive); in test [17], 15.4 µM (inactive).
For the compound `COc1ccc2oc3c(OC)c(OC)c(OC)cc3c(=O)c2c1`, the GI50 is > 100 µM (inactive) in test [18]; > 100 µM (inactive) in [1]; > 100 µM (inactive) in test [2]; > 100 µM (inactive) in test [3]; 76 µM (inactive) in test [4]; > 100 µM (inactive) in [5]. The GI50 is above 100 µM in test [6]; > 100 µM (inactive) in test [8]; > 100 µM (inactive) in test [9]; > 100 µM (inactive) in [10]; > 100 µM (inactive) in test [11]; > 100 µM (inactive) in test [13]. For the same compound, the GI50 in [14] was > 100 µM (inactive); in [15] it was 24.7 µM (inactive); in test [16], > 100 µM (inactive); in [17], 71.6 µM (inactive).
As for `CN(Cc1ccccc1)C(=O)c1ccccc1C(=O)O`, the GI50 is > 100 µM (inactive) in [1]; > 100 µM (inactive) in test [2]; > 100 µM (inactive) in test [3]; > 100 µM (inactive) in test [4]; > 100 µM (inactive) in test [5]; above 100 µM in test [6]. Besides, the GI50 in [7], in test [8], in test [9], in test [10], in test [11] and in test [12] was > 100 µM (inactive) each time. Also, the GI50 in test [13], in test [15], in test [16] and in [17] was > 100 µM (inactive) throughout.
As for `CCCN(CCC)c1c([N+](=O)[O-])cc(C(=O)N(C)C)cc1[N+](=O)[O-]`, the GI50 is 51.5 µM (inactive) in test [1]; 16.4 µM (inactive) in test [2]; 33.4 µM (inactive) in test [3]; 37.8 µM (inactive) in [4]; > 100 µM (inactive) in test [5]; 40.4 µM in [6]. Moreover, the GI50 was 53.2 µM (inactive) in test [9]; 15.5 µM (inactive) in test [10]; > 100 µM (inactive) in [11]; > 100 µM (inactive) in [12]; > 100 µM (inactive) in [13]; 5.07 µM (inactive) in test [14]. Moreover, the GI50 is 17 µM (inactive) in [15], > 100 µM (inactive) in [16] and 86.5 µM (inactive) in test [17].
For `CCOC(=O)C(C)(c1cn(C)c2ccccc12)c1cn(C)c2ccccc12`, the GI50 in test [18] is > 100 µM (inactive); in test [1], 81.5 µM (inactive); in [2], 77.1 µM (inactive); in [3], 79.6 µM (inactive); in [4] it was > 100 µM (inactive); in test [5], > 100 µM (inactive). Also, the GI50 in test [6] was above 100 µM; in test [9], 44.7 µM (inactive); in [10], 32.5 µM (inactive); in test [11], > 100 µM (inactive); in test [12], 24.5 µM (inactive); in [13], > 100 µM (inactive). The GI50 in test [14] was > 100 µM (inactive); in test [15] it was 19 µM (inactive); in [16], 83.9 µM (inactive); in [17], 57.5 µM (inactive).
Consider `NC(=O)COc1c(Br)cc(Br)cc1Br`, for which the GI50 in test [1] was > 100 µM (inactive); in test [2], > 100 µM (inactive); in test [3], > 100 µM (inactive); in [4], > 100 µM (inactive); in [5], > 100 µM (inactive); in test [6], above 100 µM. Moreover, the GI50 in [9] was > 100 µM (inactive); in test [10], 27.7 µM (inactive); in [11], > 100 µM (inactive); in [12], > 100 µM (inactive); in test [13], > 100 µM (inactive); in test [14] it was > 100 µM (inactive). For the same compound, the GI50 in test [15] and in test [17] was > 100 µM (inactive) each time.
